Test system: healthy subjects
Assay: Safety and tolerability
Assay type: in vivo, human
[1] = MAD 25 mg tablet b.i.d. 14 days
[2] = MAD 50 mg tablet b.i.d. 14 days
[3] = MAD 100 mg tablet b.i.d. 14 days
[4] = MAD 200 mg tablet b.i.d. 14 days

O[C@H]1CCCN[C@@H]1CCCn1cnc2c(Cl)c(Cl)ccc21 [Bersiporocin]
ADRs, number of events [1]: 25
Abdominal discomfort (ADR), number of events [1]: 1
Abdominal discomfort (ADR), subjects n (%) [1]: 1 (16.7)
Abdominal distension (ADR), number of events [1]: 3
Abdominal distension (ADR), subjects n (%) [1]: 2 (33.3)
Abdominal pain (ADR), number of events [1]: 5
Abdominal pain (ADR), subjects n (%) [1]: 2 (33.3)
Abdominal pain upper (ADR), subjects n (%) [1]: 0
Acne (ADR), subjects n (%) [1]: 0
Alanine aminotransferase increased (ADR), subjects n (%) [1]: 0
Altered visual depth perception (ADR), subjects n (%) [1]: 0
Balance disorder (ADR), subjects n (%) [1]: 0
Bowel movement irregularity (ADR), number of events [1]: 1
Bowel movement irregularity (ADR), subjects n (%) [1]: 1 (16.7)
Cold sweat (ADR), number of events [1]: 1
Cold sweat (ADR), subjects n (%) [1]: 1 (16.7)
Constipation (ADR), subjects n (%) [1]: 0
Decreased appetite (ADR), subjects n (%) [1]: 0
Diarrhea (ADR), number of events [1]: 3
Diarrhea (ADR), subjects n (%) [1]: 2 (33.3)
Dizziness (ADR), subjects n (%) [1]: 0
Dry mouth (ADR), subjects n (%) [1]: 0
Dysgeusia (ADR), subjects n (%) [1]: 0
Eructation (ADR), subjects n (%) [1]: 0
Esophageal pain (ADR), subjects n (%) [1]: 0
Euphoric mood (ADR), subjects n (%) [1]: 0
Feces discolored (ADR), subjects n (%) [1]: 0
Feces soft (ADR), subjects n (%) [1]: 0
Feeling hot (ADR), number of events [1]: 1
Feeling hot (ADR), subjects n (%) [1]: 1 (16.7)
Flatulence (ADR), subjects n (%) [1]: 0
Gastroesophageal reflux disease (ADR), number of events [1]: 2
Gastroesophageal reflux disease (ADR), subjects n (%) [1]: 1 (16.7)
Headache (ADR), subjects n (%) [1]: 0
Hypoesthesia (ADR), subjects n (%) [1]: 0
Impaired healing (ADR), subjects n (%) [1]: 0
Malaise (ADR), number of events [1]: 1
Malaise (ADR), subjects n (%) [1]: 1 (16.7)
Myalgia (ADR), subjects n (%) [1]: 0
Nausea (ADR), number of events [1]: 4
Nausea (ADR), subjects n (%) [1]: 1 (16.7)
Neutropenia (ADR), subjects n (%) [1]: 0
Oropharyngeal pain (ADR), subjects n (%) [1]: 0
Papule (ADR), subjects n (%) [1]: 0
Pollakiuria (ADR), subjects n (%) [1]: 0
Presyncope (ADR), subjects n (%) [1]: 0
Proctalgia (ADR), subjects n (%) [1]: 0
Salivary hypersecretion (ADR), number of events [1]: 3
Salivary hypersecretion (ADR), subjects n (%) [1]: 2 (33.3)
Skin irritation (ADR), subjects n (%) [1]: 0
Somnolence (ADR), subjects n (%) [1]: 0
Subjects with ADRs, n (%) [1]: 4 (66.7)
Transaminases increased (ADR), subjects n (%) [1]: 0
Tremor (ADR), subjects n (%) [1]: 0
Vomiting (ADR), subjects n (%) [1]: 0
ADRs, number of events [2]: 35
Abdominal discomfort (ADR), subjects n (%) [2]: 0
Abdominal distension (ADR), number of events [2]: 1
Abdominal distension (ADR), subjects n (%) [2]: 1 (16.7)
Abdominal pain (ADR), number of events [2]: 1
Abdominal pain (ADR), subjects n (%) [2]: 1 (16.7)
Abdominal pain upper (ADR), subjects n (%) [2]: 0
Acne (ADR), subjects n (%) [2]: 0
Alanine aminotransferase increased (ADR), number of events [2]: 1
Alanine aminotransferase increased (ADR), subjects n (%) [2]: 1 (16.7)
Altered visual depth perception (ADR), number of events [2]: 1
Altered visual depth perception (ADR), subjects n (%) [2]: 1 (16.7)
Balance disorder (ADR), subjects n (%) [2]: 0
Bowel movement irregularity (ADR), subjects n (%) [2]: 0
Cold sweat (ADR), subjects n (%) [2]: 0
Constipation (ADR), number of events [2]: 1
Constipation (ADR), subjects n (%) [2]: 1 (16.7)
Decreased appetite (ADR), subjects n (%) [2]: 0
Diarrhea (ADR), number of events [2]: 2
Diarrhea (ADR), subjects n (%) [2]: 2 (33.3)
Dizziness (ADR), number of events [2]: 1
Dizziness (ADR), subjects n (%) [2]: 1 (16.7)
Dry mouth (ADR), number of events [2]: 1
Dry mouth (ADR), subjects n (%) [2]: 1 (16.7)
Dysgeusia (ADR), number of events [2]: 2
Dysgeusia (ADR), subjects n (%) [2]: 2 (33.3)
Eructation (ADR), subjects n (%) [2]: 0
Esophageal pain (ADR), subjects n (%) [2]: 0
Euphoric mood (ADR), number of events [2]: 1
Euphoric mood (ADR), subjects n (%) [2]: 1 (16.7)
Feces discolored (ADR), number of events [2]: 1
Feces discolored (ADR), subjects n (%) [2]: 1 (16.7)
Feces soft (ADR), subjects n (%) [2]: 0
Feeling hot (ADR), subjects n (%) [2]: 0
Flatulence (ADR), subjects n (%) [2]: 0
Gastroesophageal reflux disease (ADR), number of events [2]: 1
Gastroesophageal reflux disease (ADR), subjects n (%) [2]: 1 (16.7)
Headache (ADR), number of events [2]: 5
Headache (ADR), subjects n (%) [2]: 3 (50.0)
Hypoesthesia (ADR), number of events [2]: 1
Hypoesthesia (ADR), subjects n (%) [2]: 1 (16.7)
Impaired healing (ADR), subjects n (%) [2]: 0
Malaise (ADR), subjects n (%) [2]: 0
Myalgia (ADR), number of events [2]: 2
Myalgia (ADR), subjects n (%) [2]: 2 (33.3)
Nausea (ADR), number of events [2]: 6
Nausea (ADR), subjects n (%) [2]: 4 (66.7)
Neutropenia (ADR), subjects n (%) [2]: 0
Oropharyngeal pain (ADR), number of events [2]: 1
Oropharyngeal pain (ADR), subjects n (%) [2]: 1 (16.7)
Papule (ADR), subjects n (%) [2]: 0
Pollakiuria (ADR), number of events [2]: 1
Pollakiuria (ADR), subjects n (%) [2]: 1 (16.7)
Presyncope (ADR), subjects n (%) [2]: 0
Proctalgia (ADR), subjects n (%) [2]: 0
Salivary hypersecretion (ADR), subjects n (%) [2]: 0
Skin irritation (ADR), subjects n (%) [2]: 0
Somnolence (ADR), subjects n (%) [2]: 0
Subjects with ADRs, n (%) [2]: 6 (100)
Transaminases increased (ADR), subjects n (%) [2]: 0
Tremor (ADR), subjects n (%) [2]: 0
Vomiting (ADR), number of events [2]: 5
Vomiting (ADR), subjects n (%) [2]: 3 (50.0)
ADRs, number of events [3]: 32
Abdominal discomfort (ADR), subjects n (%) [3]: 0
Abdominal distension (ADR), number of events [3]: 3
Abdominal distension (ADR), subjects n (%) [3]: 2 (33.3)
Abdominal pain (ADR), number of events [3]: 8
Abdominal pain (ADR), subjects n (%) [3]: 3 (50.0)
Abdominal pain upper (ADR), number of events [3]: 2
Abdominal pain upper (ADR), subjects n (%) [3]: 2 (33.3)
Acne (ADR), subjects n (%) [3]: 0
Alanine aminotransferase increased (ADR), subjects n (%) [3]: 0
Altered visual depth perception (ADR), subjects n (%) [3]: 0
Balance disorder (ADR), subjects n (%) [3]: 0
Bowel movement irregularity (ADR), subjects n (%) [3]: 0
Cold sweat (ADR), subjects n (%) [3]: 0
Constipation (ADR), number of events [3]: 2
Constipation (ADR), subjects n (%) [3]: 2 (33.3)
Decreased appetite (ADR), subjects n (%) [3]: 0
Diarrhea (ADR), number of events [3]: 4
Diarrhea (ADR), subjects n (%) [3]: 3 (50.0)
Dizziness (ADR), subjects n (%) [3]: 0
Dry mouth (ADR), subjects n (%) [3]: 0
Dysgeusia (ADR), subjects n (%) [3]: 0
Eructation (ADR), subjects n (%) [3]: 0
Esophageal pain (ADR), number of events [3]: 1
Esophageal pain (ADR), subjects n (%) [3]: 1 (16.7)
Euphoric mood (ADR), subjects n (%) [3]: 0
Feces discolored (ADR), subjects n (%) [3]: 0
Feces soft (ADR), number of events [3]: 2
Feces soft (ADR), subjects n (%) [3]: 2 (33.3)
Feeling hot (ADR), subjects n (%) [3]: 0
Flatulence (ADR), subjects n (%) [3]: 0
Gastroesophageal reflux disease (ADR), subjects n (%) [3]: 0
Headache (ADR), subjects n (%) [3]: 0
Hypoesthesia (ADR), subjects n (%) [3]: 0
Impaired healing (ADR), number of events [3]: 1
Impaired healing (ADR), subjects n (%) [3]: 1 (16.7)
Malaise (ADR), subjects n (%) [3]: 0
Myalgia (ADR), subjects n (%) [3]: 0
Nausea (ADR), number of events [3]: 4
Nausea (ADR), subjects n (%) [3]: 3 (50.0)
Neutropenia (ADR), subjects n (%) [3]: 0
Oropharyngeal pain (ADR), subjects n (%) [3]: 0
Papule (ADR), number of events [3]: 1
Papule (ADR), subjects n (%) [3]: 1 (16.7)
Pollakiuria (ADR), subjects n (%) [3]: 0
Presyncope (ADR), number of events [3]: 1
Presyncope (ADR), subjects n (%) [3]: 1 (16.7)
Proctalgia (ADR), subjects n (%) [3]: 0
Salivary hypersecretion (ADR), subjects n (%) [3]: 0
Skin irritation (ADR), number of events [3]: 1
Skin irritation (ADR), subjects n (%) [3]: 1 (16.7)
Somnolence (ADR), subjects n (%) [3]: 0
Subjects with ADRs, n (%) [3]: 6 (100)
Transaminases increased (ADR), subjects n (%) [3]: 0
Tremor (ADR), subjects n (%) [3]: 0
Vomiting (ADR), number of events [3]: 2
Vomiting (ADR), subjects n (%) [3]: 1 (16.7)
ADRs, number of events [4]: 58
Abdominal discomfort (ADR), subjects n (%) [4]: 0
Abdominal distension (ADR), number of events [4]: 5
Abdominal distension (ADR), subjects n (%) [4]: 3 (50.0)
Abdominal pain (ADR), number of events [4]: 14
Abdominal pain (ADR), subjects n (%) [4]: 3 (50.0)
Abdominal pain upper (ADR), subjects n (%) [4]: 0
Acne (ADR), number of events [4]: 1
Acne (ADR), subjects n (%) [4]: 1 (16.7)
Alanine aminotransferase increased (ADR), subjects n (%) [4]: 0
Altered visual depth perception (ADR), subjects n (%) [4]: 0
Balance disorder (ADR), number of events [4]: 1
Balance disorder (ADR), subjects n (%) [4]: 1 (16.7)
Bowel movement irregularity (ADR), subjects n (%) [4]: 0
Cold sweat (ADR), subjects n (%) [4]: 0
Constipation (ADR), subjects n (%) [4]: 0
Decreased appetite (ADR), subjects n (%) [4]: 0
Diarrhea (ADR), number of events [4]: 7
Diarrhea (ADR), subjects n (%) [4]: 4 (66.7)
Dizziness (ADR), number of events [4]: 2
Dizziness (ADR), subjects n (%) [4]: 2 (33.3)
Dry mouth (ADR), subjects n (%) [4]: 0
Dysgeusia (ADR), subjects n (%) [4]: 0
Eructation (ADR), number of events [4]: 1
Eructation (ADR), subjects n (%) [4]: 1 (16.7)
Esophageal pain (ADR), subjects n (%) [4]: 0
Euphoric mood (ADR), subjects n (%) [4]: 0
Feces discolored (ADR), subjects n (%) [4]: 0
Feces soft (ADR), subjects n (%) [4]: 0
Feeling hot (ADR), subjects n (%) [4]: 0
Flatulence (ADR), number of events [4]: 1
Flatulence (ADR), subjects n (%) [4]: 1 (16.7)
Gastroesophageal reflux disease (ADR), subjects n (%) [4]: 0
Headache (ADR), number of events [4]: 7
Headache (ADR), subjects n (%) [4]: 3 (50.0)
Hypoesthesia (ADR), subjects n (%) [4]: 0
Impaired healing (ADR), subjects n (%) [4]: 0
Malaise (ADR), subjects n (%) [4]: 0
Myalgia (ADR), subjects n (%) [4]: 0
Nausea (ADR), number of events [4]: 12
Nausea (ADR), subjects n (%) [4]: 5 (83.3)
Neutropenia (ADR), subjects n (%) [4]: 0
Oropharyngeal pain (ADR), subjects n (%) [4]: 0
Papule (ADR), subjects n (%) [4]: 0
Pollakiuria (ADR), subjects n (%) [4]: 0
Presyncope (ADR), subjects n (%) [4]: 0
Proctalgia (ADR), number of events [4]: 2
Proctalgia (ADR), subjects n (%) [4]: 1 (16.7)
Salivary hypersecretion (ADR), subjects n (%) [4]: 0
Skin irritation (ADR), subjects n (%) [4]: 0
Somnolence (ADR), number of events [4]: 2
Somnolence (ADR), subjects n (%) [4]: 1 (16.7)
Subjects with ADRs, n (%) [4]: 5 (83.3)
Transaminases increased (ADR), subjects n (%) [4]: 0
Tremor (ADR), number of events [4]: 1
Tremor (ADR), subjects n (%) [4]: 1 (16.7)
Vomiting (ADR), number of events [4]: 2
Vomiting (ADR), subjects n (%) [4]: 2 (33.3)
ADRs, number of events (MAD study, bersiporocin group): 150
subjects with ADRs, number (MAD study, bersiporocin group): 21
subjects with ADRs, percentage (MAD study, bersiporocin group): 88%

— article PMC10339703 (Clinical and Translational Science, 2023)
